# Measured values as given in ChEMBL document CHEMBL4392871, “Baraphenazines A-G, Divergent Fused Phenazine-Based Metabolites from a Himalayan Streptomyces” (J Nat Prod, 2019).
# Columns and labels:
# [1] = system: PC-3; test: Cytotoxicity in human PC3 cells assessed as reduction in cell viability incubated for 48 hrs; assay type: functional, cell-based; details: PC-3, 48 h
# [2] = system: Saccharomyces cerevisiae; test: Antimicrobial activity against Saccharomyces cerevisiae ATCC 204508 incubated for 16 to 48 hrs; assay type: functional
# [3] = system: Bacillus subtilis; test: Antimicrobial activity against Bacillus subtilis ATCC 6633 incubated for 16 to 48 hrs; assay type: functional
# [4] = system: A549; test: Cytotoxicity in human A549 cells assessed as reduction in cell viability incubated for 48 hrs; assay type: functional, cell-based; details: A549, 48 h
# [5] = system: Escherichia coli; test: Antimicrobial activity against Escherichia coli NRRL B-3708 incubated for 16 to 48 hrs; assay type: functional
# [6] = system: Staphylococcus aureus; test: Antimicrobial activity against Staphylococcus aureus ATCC 6538 incubated for 16 to 48 hrs; assay type: functional
# [7] = system: Micrococcus luteus; test: Antimicrobial activity against Micrococcus luteus NRRL B-287 incubated for 16 to 48 hrs; assay type: functional
# [8] = system: Ambystoma mexicanum; test: Toxicity in axolotl at <=10 uM by embryo tail regeneration assay; assay type: organism-based; details: in vivo
# [9] = system: Salmonella enterica; test: Antimicrobial activity against Salmonella enterica ATCC 10708 incubated for 16 to 48 hrs; assay type: functional
# [10] = system: Mycolicibacterium aurum; test: Antimicrobial activity against Mycobacterium aurum ATCC 23366 incubated for 16 to 48 hrs; assay type: functional
MIC [2],MIC [3],MIC [5],MIC [6],MIC [7],MIC [9],MIC [10],Compound,IC50 [1],IC50 [4],Activity [8]
> 120 µM,> 120 µM,> 120 µM,> 120 µM,> 120 µM,> 120 µM,> 120 µM,O=C(O)c1cc2c(c3nc4cccc(O)c4nc13)[C@@H]1Cc3nc4cccc(O)c4nc3[C@@](O)(C1)O2,> 50 µM,> 50 µM,Non-Toxic
> 120 µM,> 120 µM,> 120 µM,> 120 µM,> 120 µM,> 120 µM,> 120 µM,O=C(O)c1ccc(O)c2nc3c4c(ccc3nc12)[C@@H]1Cc2nc3cccc(O)c3nc2[C@H](O4)[C@H]1O,> 50 µM,> 50 µM,Non-Toxic
> 120 µM,> 120 µM,> 120 µM,> 120 µM,> 120 µM,> 120 µM,> 120 µM,O=C(O)C1(O)O[C@@H]2[C@@H](Cc3nc4c(O)cccc4nc3[C@@H]2O)[C@H]1c1c[nH]c2ccccc12 (stereo not given in full),> 50 µM,> 50 µM,Non-Toxic
> 120 µM,> 120 µM,> 120 µM,> 120 µM,> 120 µM,> 120 µM,> 120 µM,O=C(O)c1cccc2nc3c4c(ccc3nc12)[C@H]1c2nc3c(O)cccc3nc2C[C@@H]4[C@H]1O,> 50 µM,> 50 µM,Non-Toxic
> 120 µM,7.5 µM,> 120 µM,4 µM,7.5 µM,> 120 µM,30 µM,NC(=O)c1cccc2nc3c4c(ccc3nc12)[C@H]1c2nc3c(O)cccc3nc2C[C@@H]4[C@@H]1O,4.7 µM,2.4 µM,Non-Toxic
> 120 µM,> 120 µM,> 120 µM,> 120 µM,> 120 µM,> 120 µM,> 120 µM,O=C(O)C1(O)O[C@@H]2[C@@H](Cc3nc4c(O)cccc4nc3[C@H]2O)[C@H]1c1c[nH]c2ccccc12 (stereo not given in full),> 50 µM,> 50 µM,Non-Toxic
> 120 µM,> 120 µM,> 120 µM,> 120 µM,> 120 µM,> 120 µM,> 120 µM,O=C(O)C1(O)O[C@@H]2[C@@H](Cc3nc4c(O)cccc4nc3[C@@H]2O)[C@H]1c1ccc(O)cc1 (stereo not given in full),> 50 µM,> 50 µM,Non-Toxic
